Experimental data taken from paper PMC5778891 (Nature, 2017).
Numbering of substitutions follows the chain as printed.

Key:
[1] = target: T1, K2P2.1(TREK-1) K271Q (Mus musculus, UniProt P97438, K286Q); test: HEK cell patch clamp response to arachidonic acid, K2P2.1; format: cell-based; conditions: HEK cells, 10 μM AA
T1 sequence (P97438 1-411 isoform P97438-2 K271Q): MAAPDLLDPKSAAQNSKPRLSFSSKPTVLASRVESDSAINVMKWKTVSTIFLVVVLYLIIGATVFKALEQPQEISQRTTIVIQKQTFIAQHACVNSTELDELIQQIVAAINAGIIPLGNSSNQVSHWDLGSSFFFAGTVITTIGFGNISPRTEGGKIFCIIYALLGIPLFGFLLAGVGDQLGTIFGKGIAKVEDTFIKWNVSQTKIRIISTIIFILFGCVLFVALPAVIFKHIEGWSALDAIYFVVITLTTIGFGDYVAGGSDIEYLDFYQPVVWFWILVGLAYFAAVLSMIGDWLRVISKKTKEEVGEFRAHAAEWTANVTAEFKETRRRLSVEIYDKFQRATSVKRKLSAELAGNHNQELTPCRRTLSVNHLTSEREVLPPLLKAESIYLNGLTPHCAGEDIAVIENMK

[2] = target: T1, K2P2.1(TREK-1) K271Q; test: Two electrode voltage clamp in Xenopus oocytes, K2P2.1; format: cell-based; conditions: for effect of activator (current potentiation at 0 mV) compared with wild type: 10 μM BL-1249, 30 μM ML67-33
[3] = target: T2, K2P4.1(TRAAK) Q258K (Homo sapiens, UniProt Q9NYG8, Q232K); test: Two electrode voltage clamp in Xenopus oocytes, K2P4.1; format: cell-based; conditions: for effect of activator (current potentiation at 0 mV) compared with wild type: Xenopus oocytes, K2P4.1(TRAAK) Q258K, 10 μM BL-1249, 30 μM ML67-33
T2 sequence (Q9NYG8 1-419 isoform Q9NYG8-2 Q258K): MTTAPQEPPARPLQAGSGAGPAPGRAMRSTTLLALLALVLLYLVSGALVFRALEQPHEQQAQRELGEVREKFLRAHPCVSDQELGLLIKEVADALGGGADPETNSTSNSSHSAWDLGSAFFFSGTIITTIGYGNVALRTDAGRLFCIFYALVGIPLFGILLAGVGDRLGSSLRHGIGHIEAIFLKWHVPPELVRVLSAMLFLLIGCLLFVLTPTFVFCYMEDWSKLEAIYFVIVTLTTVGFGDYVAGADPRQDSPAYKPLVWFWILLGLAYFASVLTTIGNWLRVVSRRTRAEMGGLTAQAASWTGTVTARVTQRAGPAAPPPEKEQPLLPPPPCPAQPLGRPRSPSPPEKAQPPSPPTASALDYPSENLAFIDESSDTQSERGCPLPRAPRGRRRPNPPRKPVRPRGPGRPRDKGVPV

[4] = target: T3, K2P2.1(TREK-1) (Mus musculus, UniProt P97438); test: Two electrode voltage clamp in Xenopus oocytes, K2P2.1; format: cell-based
T3 sequence (P97438 1-411 isoform P97438-2): T1 sequence (P97438 1-411 isoform P97438-2 K271Q) with Q271K

[5] = target: T4, K2P10.1(TREK-2) (Homo sapiens, UniProt P57789); test: Two electrode voltage clamp in Xenopus oocytes, K2P10.1; format: cell-based
T4 sequence (P57789 1-543 isoform P57789-3): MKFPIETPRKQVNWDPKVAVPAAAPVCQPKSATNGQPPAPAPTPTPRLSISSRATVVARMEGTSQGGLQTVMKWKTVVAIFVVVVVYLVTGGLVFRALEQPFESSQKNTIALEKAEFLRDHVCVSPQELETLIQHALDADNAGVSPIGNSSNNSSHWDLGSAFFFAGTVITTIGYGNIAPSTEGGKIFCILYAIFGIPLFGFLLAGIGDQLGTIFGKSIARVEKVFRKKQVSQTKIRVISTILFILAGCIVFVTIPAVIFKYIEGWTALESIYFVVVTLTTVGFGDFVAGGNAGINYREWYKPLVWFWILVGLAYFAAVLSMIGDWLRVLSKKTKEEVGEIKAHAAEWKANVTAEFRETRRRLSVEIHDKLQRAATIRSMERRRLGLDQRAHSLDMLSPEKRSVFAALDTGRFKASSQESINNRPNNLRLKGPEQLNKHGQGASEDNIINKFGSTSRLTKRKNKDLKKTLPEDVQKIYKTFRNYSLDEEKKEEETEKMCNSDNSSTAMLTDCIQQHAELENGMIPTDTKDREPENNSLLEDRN

[6] = target: T5, K2P4.1(TRAAK) (Homo sapiens, UniProt Q9NYG8); test: Two electrode voltage clamp in Xenopus oocytes, K2P4.1; format: cell-based
T5 sequence (Q9NYG8 1-419 isoform Q9NYG8-2): T2 sequence (Q9NYG8 1-419 isoform Q9NYG8-2 Q258K) with K258Q

[7] = target: T3, K2P2.1(TREK-1); test: HEK293 inside-out patches, 150 mM K+[out]/150 mM Rb+[in], rectification; format: cell-based; conditions: 5 μM compound
[8] = Solubility in aqueous solutions; format: physicochemical
[9] = target: K2P2.1(TREK-1)cryst (Mus musculus, UniProt P97438, A104R/A107P/E321A/I103L/K99R/N110S/N134A/Q100E/Q105A/S111D/S315A/T101K/T112Q); test: cell-based
[10] = target: T3, K2P2.1(TREK-1); test: cell-based

Sequence of K2P2.1(TREK-1)cryst (P97438 36-337 K99R/Q100E/T101K/I103L/A104R/Q105A/A107P/N110S/S111D/T112Q/N134A/S315A/E321A): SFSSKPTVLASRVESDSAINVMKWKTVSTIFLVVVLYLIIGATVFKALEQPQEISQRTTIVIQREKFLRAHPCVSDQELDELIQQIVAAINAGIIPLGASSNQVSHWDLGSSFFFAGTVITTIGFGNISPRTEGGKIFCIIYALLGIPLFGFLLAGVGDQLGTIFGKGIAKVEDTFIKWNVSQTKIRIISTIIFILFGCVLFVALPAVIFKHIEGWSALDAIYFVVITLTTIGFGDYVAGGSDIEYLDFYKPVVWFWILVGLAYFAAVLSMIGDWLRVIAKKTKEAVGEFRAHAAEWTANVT

SMILES | effect of activator (current potentiation at 0 mV) compared with wild type [2] | effect of activator (current potentiation at 0 mV) compared with wild type [3] | EC50 [4] [µM] | EC50 [5] [µM] | activation of channel [6] | sensitivity to activator [2] | EC50 [3] [µM] | rectification coefficient (I+100mV/I-100mV) [7] | solubility in aqueous solutions [8] | EC50 [9] [µM] | EC50 [10] [µM] | also measured
CCCCC/C=C\C/C=C\C/C=C\C/C=C\CCCC(=O)O [arachidonic acid] | – | – | – | – | – | – | – | – | – | – | – | effect of activator (current potentiation at 0 mV) compared with wild type [1]: unchanged
CC1(C)c2cc(Cl)ccc2N(CCc2nn[nH]n2)c2ccc(Cl)cc21 [ML67-33, reference compound] | unchanged | unchanged | – | – | – | – | – | – | – | – | – | –
C=CS(=O)(=O)N[C@H]1CC[C@H](C(=O)NCc2ccc(Cl)cc2Cl)CC1 [ML335a, trans-N-[(2,4-dichlorophenyl)methyl]-4-ethenesulfonamidocyclohexane-1-carboxamide] | – | – | – | – | – | – | – | – | – | – | – | effect on channel ([4]; Xenopus oocytes, dose response, K2P2.1(TREK-1)): no effect
Cc1cc(Cl)ccc1OCCNC(=O)c1cccs1 [ML402, N-[2-(4-chloro-2-methylphenoxy)ethyl]thiophene-2-carboxamide] | – | – | 13.7 ± 7 | 5.9 ± 1.6 | not | insensitive | 13.6 ± 1.5 | ~ 1 | insoluble | 14.9 ± 1.6 | 5.9 ± 1.6 | –
CS(=O)(=O)Nc1ccc(C(=O)NCc2ccc(Cl)cc2Cl)cc1 [ML335, N-[(2,4-dichlorophenyl)methyl]-4-methanesulfonamidobenzamide] | – | – | 14.3 ± 2.7 | 5.2 ± 0.5 | not | insensitive | 16.2 ± 3 | ~ 1 | insoluble | 10.5 ± 2.7 | 5.2 ± 0.8 | –
c1ccc(-c2nnn[nH]2)c(Nc2cccc3c2CCCC3)c1 [BL-1249, (5,6,7,8-tetrahydro-naphthalen-1-yl)-[2-(1H-tetrazol-5-yl)-phenyl]-amine, reference compound] | unchanged | unchanged | – | – | – | – | – | – | – | – | – | –
